What is called IC50 is the concentration that inhibits the measured activity by half.

For one experiment, the target named is T1, aldose reductase (Rattus norvegicus, UniProt P07943).
T1 construct: crystalline lenses were immediately removed and stored at -80° C; from tissue; host or cells: crystalline lenses of six-week-old male SD rats
As to the kind of experiment: Aldose Reductase Inhibition Test. The format is biochemical, rat (male SD rats, crystalline lenses). Conditions: rat lens enzyme; DL-glyceraldehyde 10 mM, pH 6.2, 30° C., 5 minutes. As to the method:
Six-week-old male SD rats were anesthetized with ether and killed. The their crystalline lenses were immediately removed and stored at -80° C. The lenses were homogenized in 3 volumes of 135 mM sodium potassium phosphate buffer (pH 7.0) and centrifuged at 30,000 rpm for 30 minutes. The resulting supernatant was dialyzed overnight against 0.05M sodium chloride solution to obtain an aldose reductase solution. All operations were conducted at 4° C. and the enzyme solution was stored at -80° C.
The activity of aldose reductase was determined according to a partially modified method of J. H. Kinoshita et al. (J. Biol. Chem., 1965, 240, p. 877). More specifically, 0.1 ml of DL-glyceraldehyde (final concentration: 10 mM) was added to 0.9 ml of 100 mM sodium potassium phosphate buffer (pH 6.2) which contained lithium sulfate (final concentrationL 400 mM), reduced nicotinamide adenine dinucleotide phosphate (final concentration: 0.15 mM), the enzyme solution, and the compound to be evaluated (final concentration: 10^-5 M, 10^-6 M, 10^-7 M or 10^-8 M), and then the reaction was conducted at 30° C. for 5 minutes. During the reaction, the change in the absorbance at 340 nm with time was monitored.
The maximum reducing rate of the absorbance (U) during the reaction was determined. By subtracting, from this value, the maximum reducing rate (U0) at 340 nm of the reaction solution before the addition of the substrate (DL-glyceraldehyde), the reaction rate (V=U-U0) was calculated as a true reaction rate in the presence of the compound to be tested.
The same procedure was repeated except for the absence of the compound to be tested. A true reaction rate (V0) in case the enzyme was not inhibited was calculated (V0 =U^1 -U0^1). The aldose reductase inhibitory activity of the test compounds was determined according to the following formula:
Rate of Inhibition (%)=(V0 -V)/V0 ×100
The concentration of inhibitor giving 50% inhibition of enzyme activity (IC50) was estimated from the least-square regression line of the log dose-response curve.

Experiment [1] concerns sorbitol accumulation in sciatic nerve. As to the kind of experiment: Inhibitory activity test against sorbitol accumulation in sciatic nerve of streptozotocin diabetic rats. The experiment is classed as in vivo, rat (Sprague-Dawley). Conditions: for Rate of Inhibition of Sorbitol Accumulation, Sciatic nerve, 10 mg/kg: 10 mg/kg oral once a day for 5 days; for Rate of Inhibition of Sorbitol Accumulation, Sciatic nerve, 100 mg/kg: 100 mg/kg oral once a day for 5 days; for Rate of Inhibition of Sorbitol Accumulation in Sciatic Nerve (10 mg/kg): comparative compounds III (Table 4). On the procedure:
(§1) Groups of 6 to 8-week-old Sprague-Dawley male rats (4 animals per group) were fasted for 18 hours and streptozotocin was injected through the tail vein in a dose of 60 mg/kg, to obtain diabetic rats.
(§2) Immediately after the administration of streptozotocin, each compound to be tested was orally administered to these rats in the form of a suspension at a dose of 5 mg/kg, 10 mg/kg and 100 mg/kg (each was suspended in a 0.5% sodium carboxymethyl cellulose solution) once a day (at 9 a.m.) for 5 days.
(§3) During the test, the rats took diet and drank water freely. Four hours after the final administration of the drug in the 5th day's morning (at 9 a.m.), the rats were sacrificed and then the sciatic nerve and lens were removed to determine the amounts of sorbitol accumulated therein.
(§4) The results are expressed in the percentage obtained when the value obtained on the control to which no drug was administered is defined 100.

The test system of experiment [2] is sorbitol accumulation in lens. As to the kind of experiment: Inhibitory activity test against sorbitol accumulation in lens of streptozotocin diabetic rats. The format is in vivo, rat (Sprague-Dawley). Conditions: 100 mg/kg oral once a day for 5 days, STZ diabetic rats. As to the method: as §1, §2, §3, §4
[3] abbreviates: sciatic nerve, STZ diabetic rats.

For the molecule `O=C(Cn1nnnc1-c1ccsc1)OCCO` [Example 1, [5-(3-thienyl)tetrazol-1-yl] acetic acid 2-hydroxyethyl ester], it took 360 nM to reach half-maximal inhibition at aldose reductase (IC50). The same molecule displayed a sorbitol accumulation rate in experiment [1] of 73%. The “Rate of Inhibition of Sorbitol Accumulation, Sciatic nerve, 5 mg/kg” value (shortened to “Rate of Inhibition … 5 mg/kg”) in experiment [1] (po, 5 mg/kg, 120 h) came to 48%. Besides, in experiment [1] (setting [3]), the “Rate of Inhibition of Sorbitol Accumulation, Sciatic nerve, 10 mg/kg” value (“Rate of Inhibition … Sciatic nerve, 10 mg/kg” below) came out at 73% and the “Rate of Inhibition of Sorbitol Accumulation, Sciatic nerve, 100 mg/kg” value (shortened to “Rate of Inhibition … Sciatic nerve, 100 mg/kg”) was found to be 102%. Also, the “Rate of Inhibition of Sorbitol Accumulation, lens, 100 mg/kg” value (from here on “Rate of Inhibition … lens, 100 mg/kg”) in experiment [2] is listed as 50%.

Molecule `O=C(Cn1nnnc1-c1ccccc1)OCCO` [Example 6, (5-phenyltetrazol-1-yl) acetic acid 2-hydroxyethyl ester] showed an IC50 against aldose reductase of 3100 nM. Moreover, in experiment [1] (po, 5 mg/kg, 120 h), the “Rate of Inhibition … 5 mg/kg” value turned out to be 29%. Also, in experiment [1] (setting [3]), the “Rate of Inhibition … Sciatic nerve, 10 mg/kg” value came to 46% and the “Rate of Inhibition … Sciatic nerve, 100 mg/kg” value is reported as 103%. The “Rate of Inhibition … lens, 100 mg/kg” value in experiment [2] is 24%.

With `O=C(Cn1nnnc1-c1ccoc1)OCCO` [Example 12, [5-(3-furyl)tetrazol-1-yl] acetic acid 2-hydroxyethyl ester], the IC50 at aldose reductase amounted to 360 nM. The “Rate of Inhibition … 5 mg/kg” value in experiment [1] (po, 5 mg/kg, 120 h) was determined as 41%. Further, in experiment [1] (setting [3]), the “Rate of Inhibition … Sciatic nerve, 10 mg/kg” value worked out at 70% and the “Rate of Inhibition … Sciatic nerve, 100 mg/kg” value was found to be 107%. Besides, the “Rate of Inhibition … lens, 100 mg/kg” value in experiment [2] came to 68%.

Regarding `O=C(Cn1nnnc1-c1ccsc1)OCCCO` [Example 15, [5-(3-thienyl)tetrazol-1-yl]acetic acid 3-hydroxypropyl ester], in experiment [1] (po, 5 mg/kg, 120 h), the “Rate of Inhibition … 5 mg/kg” value is recorded as 24%. Also, in experiment [1] (setting [3]), the “Rate of Inhibition … Sciatic nerve, 10 mg/kg” value came out at 37% and the “Rate of Inhibition … Sciatic nerve, 100 mg/kg” value is given as 110%. In experiment [2], the “Rate of Inhibition … lens, 100 mg/kg” value stood at 36%.

Molecule `O=C(Cn1nnnc1-c1ccsc1)OCCCCO` [Example 16, [5-(3-thienyl)tetrazol-1-yl]acetic acid 4-hydroxybutyl ester] registered an IC50 on aldose reductase of 390 nM. In addition, the “Rate of Inhibition … 5 mg/kg” value in experiment [1] (po, 5 mg/kg, 120 h) is listed as -5%. Moreover, in experiment [1] (setting [3]), the “Rate of Inhibition … Sciatic nerve, 10 mg/kg” value is on record as 35% and the “Rate of Inhibition … Sciatic nerve, 100 mg/kg” value came to 103%. Also, the “Rate of Inhibition … lens, 100 mg/kg” value in experiment [2] is listed as -10%.

For the molecule `O=C(Cn1nnnc1-c1ccsc1)OCCCCCO` [Example 18, [5-(3-thienyl)tetrazol-1-yl]acetic acid 5-hydroxypentyl ester], on aldose reductase, the 50% inhibitory concentration (IC50) turned out to be 1300 nM. Also, in experiment [1] (po, 5 mg/kg, 120 h), the “Rate of Inhibition … 5 mg/kg” value was -27%. Further, in experiment [1] (setting [3]), the “Rate of Inhibition … Sciatic nerve, 10 mg/kg” value was determined as 16% and the “Rate of Inhibition … Sciatic nerve, 100 mg/kg” value is on record as 102%. For the same molecule, the “Rate of Inhibition … lens, 100 mg/kg” value in experiment [2] was found to be 7%.

`COCCOC(=O)Cn1nnnc1-c1ccsc1` [Example 19, [5-(3-thienyl)tetrazol-1-yl]acetic acid 2-methoxyethyl ester]: the half-maximal inhibitory concentration (IC50) at aldose reductase was found to be 210 nM. Further, the “Rate of Inhibition … 5 mg/kg” value in experiment [1] (po, 5 mg/kg, 120 h) is 22%. Further, in experiment [1] (setting [3]), the “Rate of Inhibition … Sciatic nerve, 10 mg/kg” value is given as 38% and the “Rate of Inhibition … Sciatic nerve, 100 mg/kg” value came out at 103%. For the same molecule, in experiment [2], the “Rate of Inhibition … lens, 100 mg/kg” value is 13%.

Turning to `CC(/C=C1\SC(=S)N(CC(=O)O)C1=O)=C\c1ccccc1` [ONO-2235, (E)-3-carboxymethyl-5-[(2E)-methyl-30 phenylpropenylidene]rhodan, reference compound], the “Rate of Inhibition … 5 mg/kg” value in experiment [1] (sciatic nerve, 5 mg/kg oral once a day for 5 days, STZ diabetic rats) stood at 0%. In addition, in experiment [1] (setting [3]), the “Rate of Inhibition … Sciatic nerve, 10 mg/kg” value is on record as 0% and the “Rate of Inhibition … Sciatic nerve, 100 mg/kg” value is listed as 40%.

For `CCOC(=O)Cn1nnnc1-c1ccsc1` [compound 2, reference compound], the sorbitol accumulation rate in experiment [1] was determined as 63%.

In the case of `O=C(O)Cn1nnnc1-c1ccsc1` [reference compound], the “Rate of Inhibition of Sorbitol Accumulation in Sciatic Nerve (10 mg/kg)” value (“Rate of Inhibition … (10 mg/kg)” for short) in experiment [1] (sciatic nerve) turned out to be 53%.

For “[5-(2-methylthio-3-thienyl)tetrazol-1-yl]acetic acid 2-hydroxyethyl ester [Example 2]”, the “Rate of Inhibition … (10 mg/kg)” value in experiment [1] (sciatic nerve) is given as 63%.

On to “[5-(2-thienyl)tetrazol-1-yl] acetic acid 2-hydroxyethyl ester [Example 3]”, for which the “Rate of Inhibition … (10 mg/kg)” value in experiment [1] (sciatic nerve) is given as 35%.

As for “[5-[5-(3-phenylpropyl)-2-thienyl]tetrazol-1-yl]acetic acid 2-hydroxyethyl ester [Example 5]”, in experiment [1] (sciatic nerve), the “Rate of Inhibition … (10 mg/kg)” value came to 40%.

For “[5-[(3-methylsulfonylamino)-2-thienyl]tetrazol-1-yl] acetic acid 2-hydroxyethyl ester [Example 4]”, the “Rate of Inhibition … (10 mg/kg)” value in experiment [1] (sciatic nerve) turned out to be 40%.

Source of the values: patent publication US5262433A, “Tetrazoleacetic acid derivatives and method of aldose reductase inhibition therewith” (Wakamoto Pharmaceutical Co., Ltd., priority 1991, dated 1993).
